Experimental data taken from doi:10.1101/2025.07.16.665058v1 (biorxiv, 2025).
Ends that are not written are not given here.

Assays:
rat ASIC3 (rASIC3) [1] = molecular target: T1, rat ASIC3 (rASIC3) (Rattus norvegicus, UniProt O35240); assay: whole-cell patch clamp, HEK293, potentiation of pH5.5-evoked sustained current; format: cell-based; conditions: peptide applied in pH 7.4 resting solution, pH 5.5 pulse; positive modulator
T1 sequence (O35240 1-533): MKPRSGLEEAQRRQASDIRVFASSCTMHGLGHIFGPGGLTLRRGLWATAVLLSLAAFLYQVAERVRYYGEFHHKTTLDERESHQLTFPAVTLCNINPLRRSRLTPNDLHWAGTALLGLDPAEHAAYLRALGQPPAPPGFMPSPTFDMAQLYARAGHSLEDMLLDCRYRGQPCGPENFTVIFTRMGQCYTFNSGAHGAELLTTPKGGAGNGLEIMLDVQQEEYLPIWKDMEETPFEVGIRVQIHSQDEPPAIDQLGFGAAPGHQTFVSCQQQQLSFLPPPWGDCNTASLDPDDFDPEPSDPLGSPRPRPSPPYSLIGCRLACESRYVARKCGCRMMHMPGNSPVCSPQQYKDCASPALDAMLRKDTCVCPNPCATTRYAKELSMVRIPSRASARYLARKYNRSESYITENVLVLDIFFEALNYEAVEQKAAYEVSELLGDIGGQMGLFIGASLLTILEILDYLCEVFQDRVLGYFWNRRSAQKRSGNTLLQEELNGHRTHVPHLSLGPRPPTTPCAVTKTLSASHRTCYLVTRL

rat ASIC3 (rASIC3) [2] = molecular target: T1, rat ASIC3 (rASIC3); assay: whole-cell patch clamp, HEK293, pH5.5-evoked sustained current at […] s; format: cell-based; conditions: peptide in pH 7.4 resting solution, pH 5.5 pulse, -50 mV

| Substance | EC50 (rat ASIC3 (rASIC3) [1]) [µM] | Mean fold increase (I/Ictrl) (rat ASIC3 (rASIC3) [2]) [fold] |
| --- | --- | --- |
| FRCCRF-NH2 (cysteine pairing not given here) | 4.73 ± 0.8 |  |
| FRCRCF-NH2 (cysteine pairing not given here) | 4.41 ± 0.95 |  |
| FRC̄C̄RFamide |  | 24.22 |
| FRC̄R̄C̄Famide |  | 34.08 |
